The subject of data set [1] is Helicobacter pylori standard strain ATCC 43504. As to the kind of experiment: Antibacterial potency test (MIC), Columbia agar medium, Pharmacological Test Example 1. It counts as cell-based. The method, then: A test was conducted to see whether there is a difference in the anti-Helicobacter pylori activity depending on the number of carbon atoms of the linear alkyl group for a substituent at the 4-position of the pyridine ring.
For the bacterium Helicobacter pylori, a standard strain ATCC 43504 was used to perform in vitro tests in Columbia agar medium. Each of the specimens was dissolved in a 1% DMSO solution, and the bacteria were cultured at 37° C. and pH 7.0 for 3 days. On the 4th day, the minimum growth inhibitory concentration (MIC, μg/ml) was determined.

In data set [2] the test system is Helicobacter pylori bacteria (ATCC 43504). As to the kind of experiment: Antiulcer action and bacteria eradicating action in Helicobacter pylori-infected Mongolian gerbils. The data set is classed as in vivo. Particulars: for Number of Bacteria (average) (log CFU): gastric mucosa. The method, then:
Mongolian gerbils were experimentally infected with Helicobacter pylori bacteria, and the antiulcer action and the Helicobacter pylori bacteria eradicating action of the compounds of the present invention were tested.
Male Mongolian gerbils (30 to 40 g), five animals in each group, were orally inoculated with Helicobacter pylori bacteria (ATCC 43504) at 1.6×10^7 CFU/0.5 ml/mouse, and bred for one week, and then drug was administered two times a day for two weeks. Thereafter, the […] were bred for three weeks, and then the rats were fasted for 18 hours and subjected to abdominal section, followed by autopsy. The severity of gastric ulcer, the number of Helicobacter pylori bacteria in the gastric mucosa, and the antibody titer were measured.

The nature of data set [3]: Stability test in acidic hydrochloric acid solution (pH 2), residual ratio by HPLC. It counts as physicochemical. Particulars: for Residual ratio at pH 2: pH 2 HCl, 37° C.; for Stability in acid (residual ratio at pH = 2: %): Table 8 summary, time not stated. The method, then: A test for the stability of thioether compounds (hereinafter, referred to SH-form) and sulfoxide compounds (hereinafter, referred to SO-form) at pH 2.0 was carried out. (Method) Each of the specimens produced in Examples 1 to 3 and Reference Examples 6 to 8 (sulfinyl products of Examples 1 to 3) was maintained in a solution adjusted to pH 2 with 0.5 or 1.0 mmol/L HCl (37° C.) for a predetermined time period. Subsequently, the solution was adjusted to pH 8 with triethylamine, and then an HPLC analysis was performed to calculate the residual ratio.

For data set [4], the system named is gastric acid secretion. As to the kind of experiment: Gastric acid secretion inhibiting action, pylorus ligation in rats. The data set is classed as in vivo, SD rats. The settings on record: 30 mg/kg to the duodenum, 4 hours after pylorus ligation, average. As for the experimental part: The gastric acid secretion inhibiting action of the compounds of the present invention was tested. A group of five animals of male SD rats (about 200 g) were used, and the medicaments were respectively dissolved in 0.5% CMC and were all administered to the duodenum respectively at 30 mg/kg. The rats were fasted overnight from the day before the administration of the test substance to the point of administration, and pylorus ligation was performed.

In data set [5] the test system is Helicobacter pylori standard strains ATCC 43504, ATCC 43629, ATCC 43570 and clinically separated strains. As to the kind of experiment: Anti-Helicobacter pylori activity (MIC), standard and clinically separated strains, Pharmacological Test Example 2. The data set is classed as cell-based. The method, then:
For the bacterium Helicobacter pylori, standard strains ATCC 43504, ATCC 43629 and ATCC 43570 were used to perform in vitro tests in Columbia agar medium. The bacteria were cultured at 37° C. and pH 7.0 for 3 days. On the 4th day, the minimum growth inhibitory concentration (MIC, μg/ml) was determined. Each of the specimens was dissolved in a 1% DMSO solution. Furthermore, amoxicillin and clarithromycin were used as control drugs of antibacterial substance. Further, the compound described in the article of Thomas C. Kuehler (J. Med.

Setting [6] is: ATCC43504, 72 h, ATCC 43504, 37° C., pH 7.0, 3 days, read-out: MIC.
Setting [7] is: Helicobacter pylori, ATCC43504, Table 8, amount of administration (mg) 30, read-out: HP eradication based on Mongolian gerbil infection model: Eradication rate (%).
Where [8] appears, read: ATCC43504, Table 8 summary, strain not stated, read-out: Anti-HP activity (MIC: μg/mL).
Where [9] appears, read: Clinically separated strain PT1045482.
The mark [10] stands for this setting: Clinically separated strain PT1045483.
Setting [11] is: Clinically separated strain PT1045484.
Setting [12] is: 30 mg/kg, two times a day for two weeks.
The mark [13] stands for this setting: Helicobacter pylori, ATCC43504, 336 h, 30 mg/kg, two times a day for two weeks, read-out: Eradication rate (%).

≈ marks a conversion by molar mass, not a printed value. Where two headings read alike, the source gives them in different places.

On to `CCCOc1ccnc(CSc2nc3ccccc3[nH]2)c1C` [Reference Example 3, 2-[(4-n-propoxy-3-methylpyridin-2-yl)-methylthio]-1H-benzimidazole], for which the MIC in data set [1] (setting [6]) was 1 µg/mL (≈ 3.19 µM).
Regarding `CCCCCCCOc1ccnc(C[S+]([O-])c2nc3ccccc3[nH]2)c1C` (racemic) [Reference Example 8, (±)-2-[(4-n-heptyloxy-3-methylpyridin-2-yl)-methylsulfinyl]-1H-benzimidazole], the responders at 30 mg/kg in data set [2] (setting [7]) came to 0%. Also, the “Residual ratio at pH 2” value turned out to be 100% in data set [3] (0 min), 0% in data set [3] (30 min) and 0% in data set [3] (2 hours). Further, in data set [3], the “Stability in acid (residual ratio at pH = 2: %)” value was 0%. Further, the MIC in data set [1] (setting [6]) and in data set [1] (setting [8]) was 3 µg/mL (≈ 7.78 µM) each time.
Regarding `CN/C(=N/CCSCc1nc[nH]c1C)NC#N` [Cimetidine], in data set [4], the “Gastric acid secretion inhibiting action: Amount of gastric acid” value amounted to 54%, the “Gastric acid secretion inhibiting action: Amount of gastric acid secretion” value is 74% and the “Gastric acid secretion inhibiting action: Total acidity” value came out at 41%.
On to `CCCCCOc1ccnc(C[S+]([O-])c2nc3ccccc3[nH]2)c1C` (racemic) [Reference Example 6, (±)-2-[(4-n-pentyloxy-3-methylpyridin-2-yl)-methylsulfinyl]-1H-benzimidazole], for which, in data set [2] (setting [7]), the responders at 30 mg/kg amounted to 0%. In addition, the entries for the “Residual ratio at pH 2” value in data set [3] (0 min), in data set [3] (30 min) and in data set [3] (2 hours) were 100%, 0% and 0%, respectively. The “Stability in acid (residual ratio at pH = 2: %)” value in data set [3] came to 0%. In addition, the MIC in data set [1] (setting [6]) and in data set [1] (setting [8]) was 3 µg/mL (≈ 8.39 µM) throughout.
On to `Cc1c(OCC(F)(F)F)ccnc1C[S+]([O-])c1nc2ccccc2[nH]1` (stereo not shown) [LAZ, Lansoprazole], for which, in data set [2] (setting [7]), the responders at 30 mg/kg stood at 0%. In addition, the figures for the “Residual ratio at pH 2” value in data set [3] (0 min), in data set [3] (30 min) and in data set [3] (2 hours) were 100%, 0% and 0%, respectively. The “Stability in acid (residual ratio at pH = 2: %)” value in data set [3] was found to be 0%. Further, the MIC in data set [1] (setting [8]) came out at 16 µg/mL (≈ 43.3 µM).
In the case of `COc1ccc2[nH]c([S+]([O-])Cc3ncc(C)c(OC)c3C)nc2c1` (stereo not shown) [OMZ, Omeprazole], in data set [2] (10 mg/kg), the “Antibody titer (average)” value came out at 0.52 and the “Number of Bacteria (average) (log CFU)” value is listed as 6.0 log CFU. Moreover, the “Number of Ulcers discovered” value in data set [2] (10 mg/kg, two times a day for two weeks) was 5/5. In data set [2] (Helicobacter pylori, ATCC43504, 336 h, 10 mg/kg, two times a day for two weeks, read-out: Eradication rate (%)), the responders at 10 mg/kg turned out to be 0%. In addition, in data set [2] (setting [7]), the responders at 30 mg/kg is 0%. Besides, the “Stability in acid (residual ratio at pH = 2: %)” value in data set [3] was 0%. Also, in data set [1] (setting [8]), the MIC stood at 128 µg/mL (≈ 371 µM).
`CCCCCCCCOc1ccnc(CSc2nc3ccccc3[nH]2)c1C` [Example 5, 2-[(4-n-octyloxy-3-methylpyridin-2-yl)-methylthio]-1H-benzimidazole]: in data set [1] (setting [6]), the MIC stood at 0.3 µg/mL (≈ 0.782 µM).
Consider `CCCCCCOc1ccnc(C[S+]([O-])c2nc3ccccc3[nH]2)c1C` (racemic) [Reference Example 7, (±)-2-[(4-n-hexyloxy-3-methylpyridin-2-yl)-methylsulfinyl]-1H-benzimidazole], for which the responders at 30 mg/kg in data set [2] (setting [7]) worked out at 0%. Also, the entries for the “Residual ratio at pH 2” value in data set [3] (0 min), in data set [3] (30 min) and in data set [3] (2 hours) were 100%, 0% and 0%, respectively. Moreover, the “Stability in acid (residual ratio at pH = 2: %)” value in data set [3] turned out to be 0%. Besides, the MIC in data set [1] (setting [6]) and in data set [1] (setting [8]) was 3 µg/mL (≈ 8.08 µM) throughout.
For `CCOc1ccnc(CSc2nc3ccccc3[nH]2)c1C` [Reference Example 2, 2-[(4-ethoxy-3-methylpyridin-2-yl)-methylthio]-1H-benzimidazole], in data set [1] (setting [6]), the MIC was 1 µg/mL (≈ 3.34 µM).
With `COCCCOc1ccnc(C[S+]([O-])c2nc3ccccc3[nH]2)c1C` (stereo not shown) [RAZ, Rabeprazole], the responders at 30 mg/kg in data set [2] (setting [7]) was 0%. In addition, the “Stability in acid (residual ratio at pH = 2: %)” value in data set [3] was determined as 0%. Moreover, in data set [1] (setting [8]), the MIC is 8 µg/mL (≈ 22.3 µM).
`Cc1c(OCC(C)C)ccnc1CSc1nc2ccccc2[nH]1` [Comparative Example 1, 2-[(4-isobutoxy-3-methylpyridin-2-yl)methylthio]-1H-benzimidazole]: the MIC is 3 µg/mL (≈ 9.16 µM) in data set [5] (setting [9]); 3 µg/mL (≈ 9.16 µM) in data set [5] (setting [10]); 1 µg/mL (≈ 3.05 µM) in data set [5] (setting [11]); 3 µg/mL (≈ 9.16 µM) in data set [5] (Standard strain ATCC 43504); 1 µg/mL (≈ 3.05 µM) in data set [5] (Standard strain ATCC 43570); 1 µg/mL (≈ 3.05 µM) in data set [5] (Standard strain ATCC 43629). In addition, the “Antibody titer (average)” value in data set [2] (30 mg/kg) is 0.49. For the same compound, in data set [2] (30 mg/kg), the “Number of Bacteria (average) (log CFU)” value amounted to 6.3 log CFU. In data set [2] (setting [12]), the “Number of Ulcers discovered” value is on record as 5/5. The responders at 30 mg/kg in data set [2] (setting [13]) was 0%.
For `CCCCCCCCCCOc1ccnc(CSc2nc3ccccc3[nH]2)c1C` [Reference Example 5, 2-[(4-n-decyloxy-3-methylpyridin-2-yl)-methylthio]-1H-benzimidazole], the MIC in data set [1] (setting [6]) came to 3 µg/mL (≈ 7.29 µM).
The same measure, in the same setting: the same measure for `CCCCOc1ccnc(CSc2nc3ccccc3[nH]2)c1C` [Example 4, 2-[(4-n-butoxy-3-methylpyridin-2-yl)-methylthio]-1H-benzimidazole]: 0.3 µg/mL (≈ 0.916 µM).
On to `CCCCCCCCCOc1ccnc(CSc2nc3ccccc3[nH]2)c1C` [Reference Example 4, 2-[(4-n-nonyloxy-3-methylpyridin-2-yl)-methylthio]-1H-benzimidazole], for which the MIC in data set [1] (setting [6]) is 1 µg/mL (≈ 2.52 µM).
Turning to `CC(C)COc1ccnc(CSc2nc3ccccc3[nH]2)c1` [Comparative Example 2, 2-[(4-isobutoxy-pyridin-2-yl)methylthio]-1H-benzimidazole], the MIC stood at 10 µg/mL (≈ 31.9 µM) in data set [5] (setting [9]); 10 µg/mL (≈ 31.9 µM) in data set [5] (setting [10]); 10 µg/mL (≈ 31.9 µM) in data set [5] (setting [11]); 10 µg/mL (≈ 31.9 µM) in data set [5] (Standard strain ATCC 43504); 5 µg/mL (≈ 16 µM) in data set [5] (Standard strain ATCC 43570); 10 µg/mL (≈ 31.9 µM) in data set [5] (Standard strain ATCC 43629). Also, the “Antibody titer (average)” value in data set [2] (30 mg/kg) was determined as 0.55. Moreover, in data set [2] (30 mg/kg), the “Number of Bacteria (average) (log CFU)” value came out at 5.9 log CFU. For the same compound, the “Number of Ulcers discovered” value in data set [2] (setting [12]) is 5/5. The responders at 30 mg/kg in data set [2] (setting [13]) came out at 0%.
Consider `COc1ccnc(CSc2nc3ccccc3[nH]2)c1C` [Reference Example 1, 2-[(4-methoxy-3-methylpyridin-2-yl)-methylthio]-1H-benzimidazole], for which, in data set [1] (setting [6]), the MIC is 3 µg/mL (≈ 10.5 µM).

Source of the values: patent US8778975B2, “Helicobacter pylori eradicating agent having inhibitory activity on gastric acid secretion” (Link Geonomics, Inc., priority 2006, dated 2014).
